“Also recorded” adds a separate entry of the source. Residues, ends and D or L forms follow the SMILES beside them. No end group written: not given here.
Tests used:
[1] = Serum cholesterol in cerulein pancreatitis; type: in vivo, mouse; conditions: CER-AP
Method: (§1) Cerulein-induced (CER-AP) and L-arginine induced (Arg-AP) acute pancreatitis models were performed in 12-week-old C57BL/6 mice that received 7 hourly i.p. injections of 50 μg/kg cerulein or 3 hourly i.p. injections of 3.3 g/kg Arg; controls received physiologic saline injections. Mice were euthanized for analyses 7 hours after the first cerulein or 24 hours after the first Arg injection. Choline deficient, ethionine-supplemented (CDE) pancreatitis was induced in young (~5-weeks old) female mice fed either CDE or control diet. Mice were euthanized 72 hours after the diet initiation. These models have been described in detail (1-7).
(§2) Total cholesterol content was measured with Cholesterol Assay kit per manufacturer's instructions. Samples of mouse pancreas and liver, cell pellet homogenates, subcellular fractions, isolated mitochondria, and serum were diluted in the reaction buffer containing cholesterol probe and incubated at 37° C. for 1 h in the dark. To measure total cholesterol, the samples were subjected to digestion with cholesterol esterase. To measure non-esterified cholesterol, the esterase was omitted from the assay.

pancreas [2] = assay: Pancreatic total cholesterol and lipids in acute pancreatitis models in WT mice; type: in vivo, mouse
Method: (§3) FIGS. 8A-8M show derangement of cholesterol metabolism in experimental pancreatitis. Characteristics of cholesterol metabolism were measured, as detailed in FIGS. 4A-4R, in pancreas of WT mice subjected to pancreatitis induced with cerulein (CER-AP), L-arginine (Arg-AP), or CDE diet (CDE-AP) (A, B, and E-G); ex vivo pancreatitis induced in WT mouse (C and I-M) or human acinar cells (D) with 100 nM CCK (CCK-AP) or 1 mM carbachol; and isolated pancreatic mitochondria (H). (B) Cholesterol ester (CE) heatmap; each column represents an individual mouse. (F) IB analysis of the indicated proteins. (G) LAL activity was measured by a fluorogenic assay (n=6 mice per condition). (H) Cholesterol content was measured by enzymatic assay. (I-M) Filipin colocalization with indicated proteins was quantified as detailed in FIGS. 2A-2L. Each symbol in A, C-E, and H represents an individual mouse, or cell or mitochondria preparation (n=3-15 per condition). Each symbol in J, K, and M corresponds to 20-30 cells in a different field (n=10-20 fields from 3 cell preparations per condition). Values are mean±SEM. *P<0.05, **P<0.01, ***P<0.001 vs. the same parameter in control/untreated pancreas, acinar cells or isolated mitochondria. Significance was determined by 2-tailed Student's t test (B, E, H, J, K, and M) or 1-way ANOVA followed by Tukey's multiple comparison test (A, C, and D). Scale bars: 10 μm.
Parameters of cholesterol metabolism were measured in (A, B, E, F) pancreas of mice subjected to pancreatitis induced with cerulean (CER-AP), L-arginine (Arg-AP), or combination of EtOH+palmitoleic acid (EtOH+POA); and (C) ex-vivo models on mouse and human acinar cells treated for 1 h with 100 nM CCK, […] or 500 μM TLCS. […] (B, C) Total cholesterol content was measured with cholesterol assay kit (Abcam, ab65390). […] Signficance was determined by 2-tailed student's t test. […]
(§4) Total cholesterol content was measured with Cholesterol Assay kit per manufacturer's instructions. […]
Triglycerides (TAG) content was measured using Triglyceride Assay kit. […]

pancreas [3] = assay: Pancreatic mRNA expression and protein levels (qPCR, IB) in cerulein pancreatitis; type: in vivo, mouse
Method: as §3
FIGS. 9A-9E show cerulein pancreatitis decreases pancreatic levels of GNPTAB and mediators of cholesterol trafficking through LE/Ly. (A, D, and E) IB analysis of the indicated proteins in pancreas of WT mice subjected to CER-AP and in Gnptab^−/− mice. NS, nonspecific band. (B and C) Cholesterol content was measured in pancreas of (B) WT mice that received daily i.p. injections of the NPC1 inhibitor U18666A (10 mg/kg) or vehicle for 15 days and (C) Lamp2^−/− mice. Each symbol in B, C, and E represents an individual mouse. Values are mean±SEM from 3 to 5 mice per condition. ***P<0.001 vs. the same parameter in WT control/untreated or saline-treated mice. Significance was determined by 2-tailed Student's t test (B and C) or 1-way ANOVA followed by Tukey's multiple comparison test (E).
as §1
Immunoblots were developed using enhanced chemiluminescence detection kit (Pierce), and band intensities were quantified by densitometry using FluorChem HD2 imaging system (Alpha Innotech/ProteinSimple).
qPCR. Total RNA was isolated from tissue or cells using QIAGEN RNeasy Plus kit according to the manufacturer's instructions, quantified in NanoDrop, and converted to cDNA with high-capacity cDNA reverse transcription kit. KAPA SYBR FAST qPCR Master Mix kit and a LightCycler 480 were used for quantitative PCR. Fold change related to the control group was calculated using the 2ΔΔCt method with Rplp0/36B4 as the reference gene. Primers are available upon request.

pancreatic mitochondria = assay: Cholesterol content of isolated pancreatic mitochondria in cerulein pancreatitis; type: in vivo, mouse; conditions: WT mice with CER-AP
Method: as §3, with “Each symbol in A, C-E, and H represents an individual mouse, or cell or mitochondria preparation (n=3-15 per condition). Each symbol in J, K, and M corresponds to 20-30 cells in a different field (n=10-20 fields from 3 cell preparations per condition). Values are mean±SEM. *P<0.05, **P<0.01, ***P<0.001 vs. the same parameter in control/untreated pancreas, acinar cells or isolated mitochondria.” left out, “Scale bars: 10 μm.” left out
Mitochondria were isolated from mouse pancreas and liver in a Ca2+-free medium in the presence of 1 mM EGTA, as in (3-5,13). The value of respiratory control ratio in these preparations, measured in the presence of succinate (quality control parameter), was greater than 3.0.
as §4

[4] = system: lysosomal acid lipase (LAL); assay: Lysosomal acid lipase (LAL) activity in cerulein pancreatitis; type: in vivo, mouse; conditions: WT mice with CER-AP
Method: as §3, with “Each symbol in A, C-E, and H represents an individual mouse, or cell or mitochondria preparation (n=3-15 per condition). Each symbol in J, K, and M corresponds to 20-30 cells in a different field (n=10-20 fields from 3 cell preparations per condition). Values are mean±SEM. *P<0.05, **P<0.01, ***P<0.001 vs. the same parameter in control/untreated pancreas, acinar cells or isolated mitochondria.” left out, “Scale bars: 10 μm.” left out
Activities of cathepsin (Cat) B and L, caspase-3, trypsin, and lysosomal acid lipase (LAL) were measured in pancreatic tissue or cell homogenates and subcellular fractions with fluorogenic assays using substrates specific for CatB (Z-Arg-Arg-AMC), CatL (Z-Phe-Arg-AMC), caspase-3-like ([…]), trypsin (Boc-Gln-Ala-Arg-AMC), as previously described (1-4, 6, 7); and for LAL (4-methylumbelliferyl oleate), as in (17). […]

mouse acinar cells = assay: Total cholesterol content of mouse acinar cells (ex vivo pancreatitis models or cholesterol chelator); type: cell-based; set-up: total cholesterol in acinar cells, physiologic doses: dose or concentration left out as unconfirmed
Method: as §3
(§5) Parameters of cholesterol metabolism were measured in (A, B, E, F) pancreas of mice subjected to pancreatitis induced with cerulean (CER-AP), L-arginine (Arg-AP), or combination of EtOH+palmitoleic acid (EtOH+POA); and (C) ex-vivo models on mouse and human acinar cells treated for 1 h with 100 nM CCK, […] or 500 μM TLCS. In (A), each column in CE heatmap represents an individual mouse. (B, C) Total cholesterol content was measured with cholesterol assay kit (Abcam, ab65390). […] Each symbol corresponds to 20-30 cells in each of 8 high-expression (qPCR) of proteins regulating cholesterol synthesis (4 mice/group). (B-D) Each symbol represents an individual animal or cell preparation. (A-D, F) Values are mean±SE (*p<0.05, **p<0.01, ***p<0.001 vs saline or control). Signficance was determined by 2-tailed student's t test.
(§6) Ex vivo pancreatitis models were performed on mouse and human acinar cells, and human pancreas slices by incubation with supramaximal CCK (100 nM) or carbachol (1 mM), as described previously (80, 81).
as §2
Fluorescence intensity (for cholesterol) and absorbance (for TAG) were measured in a Tecan microplate reader. Each measurement was in duplicate, and the values were normalized per mg total protein in the sample.

human acinar cells = assay: Total cholesterol content of human acinar cells (ex vivo pancreatitis models); type: cell-based
Method: as §3, §5, §6
Human pancreas slices were obtained as in (12), from portions of live normal human pancreata from pre-terminal donors that were not used for transplantation and diverted to research (provided by Trillium Gift of Life Network, Toronto, Ontario, year 2020) or from normal portions of pancreatic cancer operations. Pancreas was cut into ~3×3×3 mm pieces and embedded with 37° C. low melting 3.8% agarose gel in extracellular solution containing (mM): 125 NaCl, 2.5 KCl, 1 MgCl2, 2 CaCl2, 1.25 NaH2PO4, 26 NaHCO3, 2 sodium pyruvate, 0.25 ascorbic acid, 3 myo-inositol, 6 lactic acid, and 7 glucose, and placed on ice to solidify the gel. The gelled tissue blocks were sliced with Vibratome into 120 μm-thick slices; slices were washed with the same extracellular solution, placed in 199 medium containing 0.1 mg/mL soybean trypsin inhibitor, and treated with CCK-8 (CCK) or carbachol for ex-vivo pancreatitis.
as §4

free cholesterol = assay: Filipin colocalization with organelle markers in ex vivo CCK-AP; type: cell-based, mouse; conditions: 100 nM CCK
Method: as §3, with “Each symbol in A, C-E, and H represents an individual mouse, or cell or mitochondria preparation (n=3-15 per condition). Each symbol in J, K, and M corresponds to 20-30 cells in a different field (n=10-20 fields from 3 cell preparations per condition). Values are mean±SEM. *P<0.05, **P<0.01, ***P<0.001 vs. the same parameter in control/untreated pancreas, acinar cells or isolated mitochondria.” left out, “Scale bars: 10 μm.” left out
All fluorescence images were acquired with a Zeiss LSM710 confocal microscope using x63 objective and preset within-experiment image acquisition settings. Quantitative fluorescence analysis was performed with Volocity software (PerkinElmer). Overlap between 2 fluorescent labels was measured using Manders-Costes coefficient. […]

[5] = ex-vivo pancreatitis, 1 h, 100 nM CCK, 1 mM carbachol or 500 μM TLCS
[6] = supramaximal (100 nM) CCK-8 or carbachol, ex vivo AP

With CSCC[C@H](NC(=O)[C@H](Cc1c[nH]c2ccccc12)NC(=O)CNC(=O)[C@@H](NC(=O)[C@H](Cc1ccc(OS(=O)(=O)O)cc1)NC(=O)[C@H](CC(=O)O)NC(=O)[C@H](CCC(N)=O)NC(=O)[C@@H]1CCC(=O)N1)[C@@H](C)O)C(=O)N[C@@H](CC(=O)O)C(=O)N[C@@H](Cc1ccccc1)C(N)=O [cerulein] (HELM PEPTIDE1{[Glp].Q.D.[O=C([C@H](Cc1ccc(OS(=O)(=O)O)cc1)N[*:1])[*:2]].T.G.W.M.D.F.[am]}$$$$V2.0) the serum cholesterol levels [1] was “did not change”, the “pancreatic total cholesterol, AP models” value (pancreas [2]; Arg-AP, CER-AP or CDE-AP) was “increases” and the “pancreatic triglycerides in CER-AP” value (pancreas [2]; CER-AP) was “unchanged”. For the same compound, the “decrease in pancreatic GNPTAB α-subunit protein level” value (pancreas [3]; CER-AP) was “approximately 5 fold”, the “pancreatic LAMP2 levels” value (pancreas [3]; CER-AP) was “greatly decrease” and the LDLR protein level (pancreas [3]; WT mice with CER-AP) was “increased”. For the same compound, the SREBP2 protein level (pancreas [3]; WT mice with CER-AP) was “increased”, the “pancreatic NPC1” value (pancreas [3]; WT mice with CER-AP) was “greatly decreased” and the “pancreatic mRNA expression for enzymes mediating cholesterol synthesis” value (pancreas [3]; WT mice with CER-AP) was “upregulation”. For the same compound, the NPC2 levels (pancreas [3]; WT mice with CER-AP, listed as CER) was “no change; also recorded: not reduced”, the mitochondrial cholesterol (pancreatic mitochondria) was “elevated” and the LAL activity [4] was “increased”.
For “CCK: hormone cholecystokinin-8 (CCK) (DYMGWMDF; ends and bridges not checked; UniProt P06307 96-103, looked up)”, the “cholesterol overload, mouse acinar cells” value (mouse acinar cells; [5]) was “prominent”, the “total cholesterol in acinar cells, physiologic doses” value (mouse acinar cells; physiologic doses of CCK or carbachol) was “did not alter” and the “cholesterol content, mouse acinar cells, supramaximal stimulation” value (mouse acinar cells; [6]) was “increased”. The “cholesterol overload, human acinar cells” value (human acinar cells; [5]) was “prominent”, the “cholesterol content, human acinar cells, supramaximal stimulation” value (human acinar cells; [6]) was “increased” and the “free cholesterol in Rab7-positive LE/Ly” value (free cholesterol) was “accumulation”. The “plasma membrane free cholesterol (filipin colocalization with cadherin)” value (free cholesterol) was “markedly decreased”.

Source: US20260325485A1, “COMPOSITIONS AND METHODS FOR TREATING PANCREATITIS” (The United States Government as represented by the …, priority 2022, published 2026)
